The text below walks through data of patent US7524860B2, “Antibacterial agents” (Pfizer Inc., priority 2004, dated 2009).

In brackets after ≈: the same amount, converted by molar mass.

One experiment concerns Neisseria gonorrhoeae, GC525 (NG-2888). Kind of experiment: in-vitro antibacterial activity, microbroth dilution MIC susceptibility testing. Type of experiment: cell-based. Details: unit: ug/mL. As to conditions: Neisseria gonorrhoeae, microbroth dilution in gonococcal broth, 20-24 hours at 35 C, lowest concentration preventing visible growth, read-out: MIC. The method, then: The in-vitro antibacterial activity of selected compounds was determined against a stain of Neisseria gonorrhoeae, GC525 (NG-2888), which is described by Rouquette-Loughlin et al, in Journal of Bacteriology, February 2003, p. 1101-1106, at p. 1103. In general, minimum inhibitory concentration (MIC) susceptibility testing followed procedures recommended by the National Committee for Clinical Laboratory Standards (NCCLS^1-2) or followed the descriptions described below:
Neisseria gonorrhoeae strains were grown on Chocolate Agar II plates (BBL—Becton Dickinson Microbiology Systems, Cockeysville, Md.) and incubated at 35° C. in a humidified 5% CO2 incubator (Form a Scientific, Marietta Ohio). For microbroth dilution MIC testing, N. gonorrhoeae were tested in gonococcal broth (GCB):
Gram stains were also utilized. Permanent Stock Culture Collection
Bacterial stock cultures are stored as frozen suspensions at −70 C. N. gonorrhoeae cultures are suspended in inactivated Horse Serum (Colorado Serum Company, Denver, Colo.) containing 7.5% glucose prior to snap freezing in a dry ice/ethanol bath.
Preparation of Standardized Test Inocula and Plate Inoculation
Frozen stock cultures were used as the initial source of organisms for performing microbroth dilution MIC testing. Stock cultures were passed on their respective growth medium at least one growth cycle (18-24 hours) prior to their use. Bacterial culture suspensions were prepared directly from Chocolate Agar II plates into 10 mL cation-adjusted Mueller-Hinton Broth (CAMHB, BBL, # BB215069). Before use, cultures were adjusted to an optical density value of 1.6-2 on a Perkin-Elmer Lambda EZ150 Spectrophotometer (Wellesley, Mass.) set at a wavelength of 600 nm. Random cultures were plated for validation of actual colony counts. The adjusted cultures were diluted 400-fold (0.25 mL inoculum+100 mL GCB) into gonococcal broth producing a starting inoculum of approximately 5×10^5 cfu/mL. These cultures were inoculated into test plates (100 uL/well) using a Biomek® FX workstation (Beckman Coulter Inc., Fullerton, Calif.). The inoculated plates were placed in stacks of no more than 4 and covered with an empty plate. Plates were incubated for 20-24 hours at 35 C in a humidified CO2 incubator.
Test Compound (“Drug”) Preparation
Drug stock solutions (2 mg/mL in DMSO) were prepared on the day of testing. Drugs were weight corrected for assay content where necessary.
Drug Dilution Tray Preparation
Microbroth dilution stock plates were prepared in two dilution series, 64-0.06 ug drug/mL and 1-0.001 ug drug/mL. For the high concentration series, 200 uL of stock solution (2 mg/mL) was added to duplicate rows of a 96-well plate. This was used as the first well in the dilution series. Serial two-fold decremental dilutions were made using a BioMek FX robot (Beckman Coulter Inc., Fullerton, Calif.) with 10 of the remaining 11 wells, each of which contained 100 uL of the appropriate solvent/diluent. Row 12 contained solvent/diluent only and served as the control. For tube one of the low concentration series, 200 uL of a 31.25 ug/mL stock was added to duplicate rows of a 96-well plate. Serial two-fold dilutions were made as described above.
Daughter plates were spotted (3.2 uL/well) from the stock plates listed above using the BioMek FX robot and were inoculated with organism (100 uL/well) as described previously.
After incubation, the degree of growth in each well was read visually with the aid of a Test Reading Mirror (Dynatech Lab 220-16, Dynex Technologies, Chantilly, Va.). 96-well test plates are read in a darkened room with a single light shining from above. The MIC is the lowest concentration of drug that prevents macroscopically visible growth under the conditions of the test. […] If MIC values in duplicate tests differ by 1 well (two-fold), the […] value is reported. If duplicate tests vary by 2 dilutions (four-fold), the middle value is reported.
One may read the MIC as the lowest concentration found to suppress growth. Consider `CCNC(=O)Nc1nc2cc(-c3cncnc3)ccn2n1` [Example 5, 1-Ethyl-3-(7-pyrimidin-5-yl-[1,2,4]triazolo[1,5-a]pyridin-2-yl)-urea], for which the MIC is 64 µg/mL (≈ 226 µM).
The same measure, in the same setting: in the case of `CCNC(=O)Nc1nc2cc(-c3cccnc3)cc(C(=O)NCC)n2n1` [Example 8, 2-(3-Ethyl-ureido)-7-pyridin-3-yl-[1,2,4]triazolo[1,5-a]pyridine-5-carboxylic acid ethylamide] it was 1 µg/mL (≈ 2.83 µM); in that of `CCCNC(=O)c1cc(-c2cccnc2)cc2nc(NC(=O)NCC)nn12` [Example 9, 2-(3-Ethyl-ureido)-7-pyridin-3-yl-[1,2,4]triazolo[1,5-a]pyridine-5-carboxylic acid propylamide], 4 µg/mL (≈ 10.9 µM).
For the compound `CCNC(=O)Nc1nc2cc(-c3cccnc3)cc(C(=O)NCC3CC3)n2n1` [Example 10, 2-(3-Ethyl-ureido)-7-pyridin-3-yl-[1,2,4]triazolo[1,5-a]pyridine-5-carboxylic acid cyclopropylmethyl-amide], the MIC was 8 µg/mL (≈ 21.1 µM).
On to `CCNC(=O)Nc1nc2cc(-c3cccnc3)cc(C(=O)NCc3ccccc3)n2n1` [Example 11, 2-(3-Ethyl-ureido)-7-pyridin-3-yl-[1,2,4]triazolo[1,5-a]pyridine-5-carboxylic acid benzylamide], for which the MIC was greater than 64 µg/mL.
As for `CCNC(=O)Nc1nc2cc(-c3cccnc3)cc(C(=O)NC(C)C)n2n1` [Example 12, 2-(3-Ethyl-ureido)-7-pyridin-3-yl-[1,2,4]triazolo[1,5-a]pyridine-5-carboxylic acid isopropylamide], the MIC was 2 µg/mL (≈ 5.44 µM).
As for `CCNC(=O)Nc1nc2cc(-c3cccnc3)cc(C(=O)NC3CC3)n2n1` [Example 13, 2-(3-Ethyl-ureido)-7-pyridin-3-yl-[1,2,4]triazolo[1,5-a]pyridine-5-carboxylic acid cyclopropylamide], the MIC worked out at 4 µg/mL (≈ 10.9 µM).
Still for that read-out and setting: as for `CCNC(=O)Nc1nc2cc(-c3cccnc3)cc(-c3cnco3)n2n1` [Example 22, N-Ethyl-N′-[5-(1,3-oxazol-5-yl)-7-pyridin-3-yl[1,2,4]triazolo[1,5-a]pyridin-2-yl]urea], the figure is 0.5 µg/mL (≈ 1.43 µM).
Same read-out and setting: in the case of `CCNC(=O)Nc1nc2cc(-c3cccnc3)cc(/C=N/O)n2n1` [Example 24, N-Ethyl-N′-{5-[(E)-(hydroxyimino)methyl]-7-pyridin-3-yl[1,2,4]triazolo[1,5-a]pyridin-2-yl}urea] it was greater than 64 µg/mL; in that of `CCNC(=O)Nc1nc2cc(-c3cccnc3)cc(C(C)O)n2n1` (stereo not drawn) [Example 25, N-Ethyl-N′-[5-(1-hydroxyethyl)-7-pyridin-3-yl[1,2,4]triazolo[1,5-a]pyridin-2-yl]urea], 1 µg/mL (≈ 3.06 µM).
Turning to `CCNC(=O)Nc1nc2cc(-c3cccnc3)cc(C(C)=O)n2n1` [Example 26, N-(5-Acetyl-7-pyridin-3-yl[1,2,4]triazolo[1,5-a]pyridin-2-yl)-N′-ethylurea], the MIC came to 1 µg/mL (≈ 3.08 µM).
`CCNC(=O)Nc1nc2cc(-c3cccnc3)cc(C#N)n2n1` [Example 27, N-(5-Cyano-7-pyridin-3-yl[1,2,4]triazolo[1,5-a]pyridin-2-yl)-N′-ethylurea]: the minimal inhibitory concentration (MIC) worked out at 2 µg/mL (≈ 6.51 µM).
As to `CCNC(=O)Nc1nc2cc(-c3cccnc3)cc(-c3nnc(CC(C)=O)o3)n2n1` [Example 28, 1-Ethyl-3-{5-[5-(2-oxo-propyl)-[1,3,4]oxadiazol-2-yl]-7-pyridin-3-yl-[1,2,4]triazolo[1,5-a]pyridin-2-yl}-urea], the MIC was greater than 64 µg/mL.
In the case of `CCNC(=O)Nc1nc2cc(-c3cnccc3OC)cc(C(=O)NCC)n2n1` [Example 32, 2-(3-Ethyl-ureido)-7-(4-methoxy-pyridin-3-yl)-[1,2,4]triazolo[1,5-a]pyridine-5-carboxylic acid ethyl amide], the MIC worked out at 1 µg/mL (≈ 2.61 µM).
Take `CCNC(=O)Nc1nc2cc(C3=CCOCC3)cc(C(=O)NCC)n2n1` [Example 33, 7-(3,6-Dihydro-2H-pyran-4-yl)-2-(3-ethyl-ureido)-[1,2,4]triazolo[1,5-a]pyridine-5-carboxylic acid ethyl amide]: the MIC is greater than 64 µg/mL.
Regarding `CCNC(=O)Nc1nc2cc(-c3ccc(F)nc3)cc(C(=O)NCC)n2n1` [Example 34, 2-(3-Ethyl-ureido)-7-(6-fluoro-pyridin-3-yl)-[1,2,4]triazolo[1,5-a]pyridine-5-carboxylic acid ethylamide], the MIC worked out at 1 µg/mL (≈ 2.69 µM).
As to `CCNC(=O)Nc1nc2cc(-c3ccc(C)nc3C)cc(C(=O)NCC)n2n1` [Example 35, 7-(2,6-Dimethyl-pyridin-3-yl)-2-(3-ethyl-ureido)-[1,2,4]triazolo[1,5-a]pyridine-5-carboxylic acid ethyl amide], the MIC came to 8 µg/mL (≈ 21 µM).
Still for that read-out and setting: in the case of `CCNC(=O)Nc1nc2cc(-c3cccnc3)cc(C(=O)N(C)CCN(CC)CC)n2n1` [Example 36, 2-(3-Ethyl-ureido)-7-pyridin-3-yl-[1,2,4]triazolo[1,5-a]pyridine-5-carboxylic acid(2-diethylamino-ethyl)-methyl-amide] it was greater than 64 µg/mL; in that of `CCNC(=O)Nc1nc2cc(-c3cccnc3)cc(C(=O)N[C@H]3CC[C@H](O)CC3)n2n1` [Example 39, trans-2-(3-Ethyl-ureido)-7-pyridin-3-yl-[1,2,4]triazolo[1,5-a]pyridine-5-carboxylic acid (4-hydroxy-cyclohexyl)-amide], 32 µg/mL (≈ 75.6 µM); in that of `CCNC(=O)Nc1nc2cc(-c3cccnc3)cc(C(=O)NCC(C)C)n2n1` [Example 40, 2-(3-Ethyl-ureido)-7-pyridin-3-yl-[1,2,4]triazolo[1,5-a]pyridine-5-carboxylic acid isobutyl-amide], 2 µg/mL (≈ 5.24 µM).

Staying with this experiment, now noted: microbroth dilution in gonococcal broth, 20-24 hours at 35 C, lowest concentration preventing visible growth.
For the compound “1-(5-Cyclopropylaminomethyl-7-pyridin-3-yl-imidazo[1,2-a]pyridin-2-yl)-3-ethyl-urea [Example 114]”, the MIC stood at 32.0 µg/mL.
For “1-Ethyl-3-(5-ethylaminomethyl-7-pyridin-3-yl-imidazo[1,2-a]pyridin-2-yl)-urea [Example 115]”, the MIC stood at 32.0 µg/mL.
The same measure, in the same setting: in the case of “1-Ethyl-3-[7-pyridin-3-yl-5-(pyrrolidine-1-carbonyl)-imidazo[1,2-a]pyridin-2-yl]-urea [Example 120]” it was greater than 64.0 µg/mL; in that of “1-[7-(6-Dimethylamino-pyridin-3-yl)-[1,2,4]triazolo[1,5-a]pyridin-2-yl]-3-ethyl-urea [Example 4]”, greater than 64.0 µg/mL; in that of “2-(3-Ethyl-ureido)-7-(4-methoxy-phenyl)-imidazo[1,2-a]pyridine-5-carboxylic acid ethylamide [Example 119]”, 64.0 µg/mL.
“7-(2-Dimethylamino-pyrimidin-5-yl)-2-(3-isopropyl-ureido)-imidazo[1,2-a]pyridine-5-carboxylic acid ethylamide [Example 117]”: the MIC was greater than 64.0 µg/mL.
Consider `CCNC(=O)Nc1nc2cc(-c3cccnc3)cc(C(=O)N(CC)CC)n2n1` [Example 14, 2-(3-Ethyl-ureido)-7-pyridin-3-yl-[1,2,4]triazolo[1,5-a]pyridine-5-carboxylic acid diethylamide], for which the MIC is 16 µg/mL (≈ 41.9 µM).
`CCNC(=O)Nc1nc2cc(-c3cccnc3)cc(-c3nnc(C(C)C)o3)n2n1` [Example 29] had an MIC greater than 64.0 µg/mL.
The same measure, in the same setting: as for `CCNC(=O)Nc1nc2cc(-c3cnc(N(C)C)nc3)cc(-c3nnc(CC(C)C)s3)n2n1` [Example 30], the figure is greater than 64.0 µg/mL; as for `CCNC(=O)Nc1nc2cc(-c3cccnc3OC)cc(C(=O)NCC)n2n1` [Example 31, 2-(3-Ethyl-ureido)-7-(2-methoxy-pyridi-3-yl)-[1,2,4]triazolo[1,5-a]pyridine-5-carboxylic acid ethyl amide], 8.00 µg/mL (≈ 20.9 µM).
